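Tested at 5 concentrations; 48 h exposure; 96-well plates; endpoints linearly interpolated, else capped at highest concentration. The concentration for full growth arrest is given as TGI.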
What was measured:
Experiment in all cases: inhibition of tumour cell growth, NCI panel, 48 h
SN12C renal = tested on: SN12C renal
K-562 leukemia = tested on: K-562 leukemia
SK-MEL-28 melanoma = tested on: SK-MEL-28 melanoma
PC-3 prostate = tested on: PC-3 prostate
HOP-92 NSCLC = tested on: HOP-92 NSCLC
HOP-62 NSCLC = tested on: HOP-62 NSCLC
SK-MEL-5 melanoma = tested on: SK-MEL-5 melanoma
SW-620 colon = tested on: SW-620 colon
OVCAR-4 ovarian = tested on: OVCAR-4 ovarian
MDA-N = tested on: MDA-N
SK-OV-3 ovarian = tested on: SK-OV-3 ovarian
UACC-257 melanoma = tested on: UACC-257 melanoma
HS 578T breast = tested on: HS 578T breast
OVCAR-8 ovarian = tested on: OVCAR-8 ovarian
UACC-62 melanoma = tested on: UACC-62 melanoma
SK-MEL-2 melanoma = tested on: SK-MEL-2 melanoma
U251 CNS = tested on: U251 CNS
NCI-H23 lung = tested on: NCI-H23 lung
M14 melanoma = tested on: M14 melanoma
BT-549 breast = tested on: BT-549 breast
NCI-H226 lung = tested on: NCI-H226 lung
TK-10 renal = tested on: TK-10 renal
KM12 colon = tested on: KM12 colon
HCT-15 colon = tested on: HCT-15 colon
OVCAR-3 ovarian = tested on: OVCAR-3 ovarian
UO-31 renal = tested on: UO-31 renal
SF-539 CNS = tested on: SF-539 CNS
HL-60(TB) leukemia = tested on: HL-60(TB) leukemia
MDA-MB-435 = tested on: MDA-MB-435
IGROV1 ovarian = tested on: IGROV1 ovarian
MALME-3M melanoma = tested on: MALME-3M melanoma
SNB-19 CNS = tested on: SNB-19 CNS
A549 NSCLC = tested on: A549 NSCLC
NCI/ADR-RES ovarian = tested on: NCI/ADR-RES ovarian
SR leukemia = tested on: SR leukemia
NCI-H460 lung = tested on: NCI-H460 lung
MDA-MB-231 breast = tested on: MDA-MB-231 breast
COLO 205 colon = tested on: COLO 205 colon
DU-145 prostate = tested on: DU-145 prostate
RXF 393 renal = tested on: RXF 393 renal
LOX IMVI melanoma = tested on: LOX IMVI melanoma
MOLT-4 leukemia = tested on: MOLT-4 leukemia
HCT-116 colon = tested on: HCT-116 colon
MCF7 breast = tested on: MCF7 breast
786-0 renal = tested on: 786-0 renal
CAKI-1 renal = tested on: CAKI-1 renal
RPMI-8226 leukemia = tested on: RPMI-8226 leukemia
SF-268 CNS = tested on: SF-268 CNS
HT29 colon = tested on: HT29 colon
CCRF-CEM leukemia = tested on: CCRF-CEM leukemia
A498 renal = tested on: A498 renal
HCC-2998 colon = tested on: HCC-2998 colon
ACHN renal = tested on: ACHN renal
SF-295 CNS = tested on: SF-295 CNS
OVCAR-5 ovarian = tested on: OVCAR-5 ovarian
EKVX NSCLC = tested on: EKVX NSCLC

Measured: TGI

Cc1c(NC(=O)c2cc([N+](=O)[O-])cc([N+](=O)[O-])c2)c(=O)n(-c2ccccc2)n1C
52.2 µM: COLO 205 colon
> 100 µM: SN12C renal | K-562 leukemia | SK-MEL-28 melanoma | PC-3 prostate | HOP-92 NSCLC | HOP-62 NSCLC | SK-MEL-5 melanoma | SW-620 colon | OVCAR-4 ovarian | MDA-N | SK-OV-3 ovarian | UACC-257 melanoma | HS 578T breast | OVCAR-8 ovarian | UACC-62 melanoma | SK-MEL-2 melanoma | U251 CNS | NCI-H23 lung | M14 melanoma | BT-549 breast | NCI-H226 lung | TK-10 renal | KM12 colon | HCT-15 colon | OVCAR-3 ovarian | UO-31 renal | SF-539 CNS | HL-60(TB) leukemia | MDA-MB-435 | IGROV1 ovarian | MALME-3M melanoma | SNB-19 CNS | A549 NSCLC | NCI/ADR-RES ovarian | SR leukemia | NCI-H460 lung | MDA-MB-231 breast | DU-145 prostate | RXF 393 renal | LOX IMVI melanoma | MOLT-4 leukemia | HCT-116 colon | MCF7 breast | 786-0 renal | CAKI-1 renal | RPMI-8226 leukemia | SF-268 CNS | HT29 colon | CCRF-CEM leukemia | A498 renal

Cc1nc2c(O)cc3c4c(n(Cc5ccccc5)c3c2nc1C)C(=O)CCC4
59.3 µM: OVCAR-4 ovarian
48.1 µM: SF-539 CNS
64 µM: U251 CNS
74 µM: HOP-92 NSCLC
69.1 µM: 786-0 renal
50.1 µM: SK-MEL-2 melanoma
> 100 µM: SN12C renal | K-562 leukemia | PC-3 prostate | SK-MEL-5 melanoma | HCC-2998 colon | SW-620 colon | MDA-N | ACHN renal | UACC-257 melanoma | HS 578T breast | UACC-62 melanoma | SF-295 CNS | NCI-H23 lung | M14 melanoma | OVCAR-5 ovarian | NCI-H226 lung | TK-10 renal | KM12 colon | HCT-15 colon | UO-31 renal | HL-60(TB) leukemia | EKVX NSCLC | MDA-MB-435 | MALME-3M melanoma | SNB-19 CNS | A549 NSCLC | NCI/ADR-RES ovarian | SR leukemia | NCI-H460 lung | MDA-MB-231 breast | COLO 205 colon | DU-145 prostate | LOX IMVI melanoma | MOLT-4 leukemia | HCT-116 colon | MCF7 breast | RPMI-8226 leukemia | HT29 colon | CCRF-CEM leukemia | A498 renal
83.2 µM: OVCAR-3 ovarian
69.6 µM: SK-OV-3 ovarian
39.9 µM: HOP-62 NSCLC
50.9 µM: SF-268 CNS
52.6 µM: OVCAR-8 ovarian
76.2 µM: SK-MEL-28 melanoma
32.2 µM: RXF 393 renal

From PubChem BioAssay (NCI)
